The source of these data is patent US6723716B1, “7-acylamino-3-heteroarylthio-3-cephem carboxylic acid antibiotics and prodrugs thereof” (Essential Therapeutics, Inc., priority 1999, dated 2004).

One data set concerns rhesus serum proteins. Nature of the data set: Serum binding determination by ultrafiltration/HPLC. In kind it is in vitro ADME. The following applies: by HPLC.
Another data set concerns rat serum proteins. Described as above. The class given is in vitro ADME. The conditions noted are these: by HPLC.
For data set [1], the system named is S. aureus ATCC 13709 (Smith diffuse). Briefly: Murine lethal bacteremic peritonitis (septicemia) efficacy. In kind it is in vivo, mice. The conditions noted are these: for responders at 0.312 mg/kg: dose 0.312 mg/kg s.c. at 0 and 2 h post-challenge; for responders at 0.625 mg/kg: dose 0.625 mg/kg s.c. at 0 and 2 h post-challenge; for responders at 1.25 mg/kg: dose 1.25 mg/kg s.c. at 0 and 2 h post-challenge; for responders at 2.5 mg/kg: dose 2.5 mg/kg s.c. at 0 and 2 h post-challenge; for ED50: ATCC13709, mice, S. aureus ATCC 13709 i.p., s.c. at 0 and 2 h post-challenge, probit method. As to the method: 10 mice/group were injected intraperitoneally with 2.98×10^7 cfu S. aureus ATCC 13709 (Smith diffuse) and treated at 0 and 2 hrs post-challenge with serial two-fold doses of new cephalosporin antibiotic, imipenem and vancomycin subcutaneously in order to determine the ED50. Male Swiss-Webster mice weighing originally 24.2-26.1 g were obtained from Charles Rivers Labs, Hollister, Calif. Mice were housed 10 per cage and given free access to water and mouse chow.
Staphylococcus aureus ATCC 13709 (Smith diffuse) was grown overnight at 37° C. in Brain-heart Infusion broth (BHIB). The following morning, it was subcultured to fresh BHIB and incubated for 4-5 h at 37° C. The log-phase growth cells were washed once with physiological saline and adjusted to the desired concentration by correlation of absorbency at OD 600 nm with predetermined plate counts (NCCLS, 1994). The cell suspension was mixed with an equal volume of sterile 14% hog-gastric mucin (2). Inoculum was kept in an ice bath until used (<1 h).
Mice were challenged via an injection of 0.5 mL bacterial suspension intraperitoneally. The bacterial challenge was 2.98×10^7 cfu/mouse.
Imipenem (Primaxin IV; Lot 7294A), vancomycin (Vancocin; Lot 8MU60W), and new cephalosporin antibiotic were prepared by serial two-fold dilutions to concentrations of 0.078-0.005 mg/mL, 1.2-0.075 mg/mL, 0.3-0.02 mg/mL, 0.3-0.02 mg/mL and 0.3-0.02 mg/mL respectively in sterile water (1). All antibiotics were administered subcutaneously in 0.1 mL volumes at 0 and 2 hours post-challenge. Concentrations of all compounds are based on the weight of the bioactive ingredients.
The 50% effective dose (ED50) was calculated by the probit method (3) utilizing a program entitled Probit (Nycomed-Salutar).

The mark [2] stands for this setting: Staphylococcus aureus, ATCC13709, sc, read-out: Efficacy in murine septicemia % survival.
Setting [3] is: dose 5 mg/kg s.c. at 0 and 2 h post-challenge.

Regarding `N=C(N)NCCSCc1cnccc1SC1=C(C(=O)O)N2C(=O)[C@@H](NC(=O)/C(=N\O)c3nsc(N)n3)[C@H]2SC1` [Cmpd 25, (7R)-7-[(Z)-2-(5-amino-1,2,4-thiadiazol-3-yl)-2-(hydroxyimino)acetamido]-3-[3-(2-guanidinoethylthiomethyl)pyrid-4-ylthio]-3-cephem-4-carboxylic acid], the “Serum Binding rhesus (% of compound bound to serum)” value in the data set on rhesus serum proteins came to 55%. For the same molecule, in the data set with rat serum proteins, the “Serum Binding rat (% of compound bound to serum)” value is given as 35%. In addition, in data set [1] (setting [2]), the responders at 0.312 mg/kg is 80%, the responders at 0.625 mg/kg is 100%, the responders at 1.25 mg/kg was found to be 100% and the responders at 2.5 mg/kg came to 100%. The molecule also showed a median effective dose (ED50) in data set [1] (Staphylococcus aureus) of under 0.31 mg/kg. The “Efficacy in murine septicemia % survival” value in data set [1] (setting [3]) is reported as 5/100%.
For the molecule `NCCSCc1nc(N)sc1SC1=C(C(=O)O)N2C(=O)[C@@H](NC(=O)/C(=N\O)c3nc(N)sc3Cl)[C@H]2SC1` [Cmpd 3, (7R)-7-[(Z)-2-(2-amino-5-chlorothiazol-4-yl)-2-(hydroxyimino)acetamido]-3-[4-(2-aminoethylthiomethyl)-2-amino-1,3-thiazol-5-ylthio]-3-cephem-4-carboxylic acid], the “Serum Binding rhesus (% of compound bound to serum)” value in the data set on rhesus serum proteins is 93%. For the same molecule, in the data set with rat serum proteins, the “Serum Binding rat (% of compound bound to serum)” value was found to be 56%. Also, the responders at 0.078 mg/kg in data set [1] (Staphylococcus aureus, ATCC13709, sc, dose 0.078 mg/kg s.c. at 0 and 2 h post-challenge, read-out: Efficacy in murine septicemia % survival) came to 30%. Moreover, the responders at 0.165 mg/kg in data set [1] (Staphylococcus aureus, ATCC13709, sc, dose 0.165 mg/kg s.c. at 0 and 2 h post-challenge, read-out: Efficacy in murine septicemia % survival) was determined as 40%. In data set [1] (setting [2]), the responders at 0.312 mg/kg worked out at 50%, the responders at 0.625 mg/kg worked out at 90%, the responders at 1.25 mg/kg was determined as 90% and the responders at 2.5 mg/kg was 100%. In addition, in data set [1] (Staphylococcus aureus), the 50% effect level (ED50) was put at a dose of 0.39 mg/kg.
`NCCSCc1ncccc1SC1=C(C(=O)O)N2C(=O)[C@@H](NC(=O)/C(=N\O)c3nc(N)sc3Cl)[C@H]2SC1` [Cmpd 13, (7R)-7-[(Z)-2-(2-amino-5-chlorothiazol-4-yl)-2-(hydroxyimino)acetamido]-3-[2-(2-aminoethylthiomethyl)pyrid-3-ylthio]-3-cephem-4-carboxylic acid]: the “Serum Binding rat (% of compound bound to serum)” value with rat serum proteins is reported as 85%. Also, in data set [1] (setting [2]), the responders at 0.625 mg/kg worked out at 100%, the responders at 1.25 mg/kg was 100% and the responders at 2.5 mg/kg is 100%. Also, the “Efficacy in murine septicemia % survival” value in data set [1] (setting [3]) was 5/100%.
For `NCCSCc1cnccc1SC1=C(C(=O)O)N2C(=O)[C@@H](NC(=O)/C(=N\O)c3nsc(N)n3)[C@H]2SC1` [Cmpd 18, (7R)-7-[(Z)-2-(5-amino-1,2,4-thiadiazol-3-yl)-2-(hydroxyimino)acetamido]-3-[3-(2-aminoethylthiomethyl)pyrid-4-ylthio]-3-cephem-4-carboxylic acid], the “Serum Binding rhesus (% of compound bound to serum)” value in the data set on rhesus serum proteins amounted to 67%. Besides, the “Serum Binding rat (% of compound bound to serum)” value with rat serum proteins came out at 55%. For the same molecule, in data set [1] (setting [2]), the responders at 0.312 mg/kg stood at 30%, the responders at 0.625 mg/kg stood at 60%, the responders at 1.25 mg/kg came out at 100% and the responders at 2.5 mg/kg is 100%. The ED50 in data set [1] (Staphylococcus aureus) stood at 0.46 mg/kg. For the same molecule, the “Efficacy in murine septicemia % survival” value in data set [1] (setting [3]) was 5/100%.
For the molecule `NCCSCc1ccncc1SC1=C(C(=O)O)N2C(=O)[C@@H](NC(=O)/C(=N\O)c3nc(N)sc3Cl)[C@H]2SC1` [Cmpd 21, (7R)-7-[(Z)-2-(2-amino-5-chlorothiazol-4-yl)-2-(hydroxyimino)acetamido]-3-[4-(2-aminoethylthiomethyl)pyrid-3-ylthio]-3-cephem-4-carboxylic acid], the “Serum Binding rhesus (% of compound bound to serum)” value with rhesus serum proteins was found to be 97%. Further, the “Serum Binding rat (% of compound bound to serum)” value in the data set on rat serum proteins is 97%. For the same molecule, in data set [1] (setting [2]), the responders at 0.312 mg/kg stood at 0%, the responders at 0.625 mg/kg was determined as 0%, the responders at 1.25 mg/kg was found to be 70% and the responders at 2.5 mg/kg came out at 80%. The ED50 in data set [1] (Staphylococcus aureus) was determined as 0.79 mg/kg.
In the case of `NCCSCc1cnccc1SC1=C(C(=O)O)N2C(=O)[C@@H](NC(=O)/C(=N\O)c3nc(N)sc3Cl)[C@H]2SC1` [Cmpd 20, (7R)-7-[(Z)-2-(2-amino-5-chlorothiazol-4-yl)-2-(hydroxyimino)acetamido]-3-[3-(2-aminoethylthiomethyl)pyrid-4-ylthio]-3-cephem-4-carboxylic acid], the “Serum Binding rhesus (% of compound bound to serum)” value in the data set on rhesus serum proteins is reported as 77%. In the data set with rat serum proteins, the “Serum Binding rat (% of compound bound to serum)” value was 71%. Also, in data set [1] (Staphylococcus aureus, ATCC13709, sc, dose 0.156 mg/kg s.c. at 0 and 2 h post-challenge, read-out: Efficacy in murine septicemia % survival), the responders at 0.156 mg/kg was 20%. In data set [1] (setting [2]), the responders at 0.312 mg/kg stood at 10%, the responders at 0.625 mg/kg was determined as 30%, the responders at 1.25 mg/kg is 58% and the responders at 2.5 mg/kg turned out to be 80%. In data set [1] (Staphylococcus aureus), the ED50 stood at 1 mg/kg.
For the molecule `NCCSCc1ncsc1SC1=C(C(=O)O)N2C(=O)[C@@H](NC(=O)/C(=N\O)c3cccc(N)n3)[C@H]2SC1` [Cmpd 23, (7R)-7-[(Z)-2-(2-aminopyrid-6-yl)-2-(hydroxyimino)acetamido]-3-[4-(2-aminoethylthiomethyl)-1,3-thiazol-5-ylthio]-3-cephem-4-carboxylic acid], the “Serum Binding rhesus (% of compound bound to serum)” value with rhesus serum proteins came out at 93%. For the same molecule, the “Serum Binding rat (% of compound bound to serum)” value in the data set on rat serum proteins turned out to be 77%. In data set [1] (setting [2]), the responders at 0.312 mg/kg stood at 40%, the responders at 1.25 mg/kg is 100% and the responders at 2.5 mg/kg was 100%. Moreover, it took a dose of 0.39 mg/kg to reach the 50% effect level in data set [1] (Staphylococcus aureus) (ED50). Moreover, the “Efficacy in murine septicemia % survival” value in data set [1] (setting [3]) is recorded as 5/100%.
With `N=C(N)NCCSCc1ncccc1SC1=C(C(=O)O)N2C(=O)[C@@H](NC(=O)/C(=N\O)c3nsc(N)n3)[C@H]2SC1` [Cmpd 14, (7R)-7-[(Z)-2-(5-amino-1,2,4-thiadiazol-3-yl)-2-(hydroxyimino)acetamido]-3-[2-(2-guanidinoethylthiomethyl)pyrid-3-ylthio]-3-cephem-4-carboxylic acid], in data set [1] (setting [2]), the responders at 0.312 mg/kg was 90%, the responders at 0.625 mg/kg was determined as 100%, the responders at 1.25 mg/kg turned out to be 100% and the responders at 2.5 mg/kg came to 100%. Further, the ED50 in data set [1] (Staphylococcus aureus) was under 0.31 mg/kg. In addition, the “Efficacy in murine septicemia % survival” value in data set [1] (setting [3]) is 5/100%.
Regarding `NCCSCc1ncccc1SC1=C(C(=O)O)N2C(=O)[C@@H](NC(=O)/C(=N\O)c3nsc(N)n3)[C@H]2SC1` [Cmpd 17, (7R)-7-[(Z)-2-(5-amino-1,2,4-thiadiazol-3-yl)-2-(hydroxyimino)acetamido]-3-[2-(2-aminoethylthiomethyl)pyrid-3-ylthio]-3-cephem-4-carboxylic acid], the “Serum Binding rhesus (% of compound bound to serum)” value in the data set with rhesus serum proteins is reported as 81%. The “Serum Binding rat (% of compound bound to serum)” value with rat serum proteins is 74%. Further, the responders at 0.12 mg/kg in data set [1] (Staphylococcus aureus, ATCC13709, sc, dose 0.12 mg/kg s.c. at 0 and 2 h post-challenge, read-out: Efficacy in murine septicemia % survival) turned out to be 10%. In addition, the responders at 0.25 mg/kg in data set [1] (Staphylococcus aureus, ATCC13709, sc, dose 0.25 mg/kg s.c. at 0 and 2 h post-challenge, read-out: Efficacy in murine septicemia % survival) was determined as 20%. Further, in data set [1] (Staphylococcus aureus, ATCC13709, sc, dose 0.5 mg/kg s.c. at 0 and 2 h post-challenge, read-out: Efficacy in murine septicemia % survival), the responders at 0.5 mg/kg stood at 50%. Besides, in data set [1] (Staphylococcus aureus, ATCC13709, sc, dose 1.0 mg/kg s.c. at 0 and 2 h post-challenge, read-out: Efficacy in murine septicemia % survival), the responders at 1 mg/kg came out at 100%. Besides, in data set [1] (Staphylococcus aureus, ATCC13709, sc, dose 2.0 mg/kg s.c. at 0 and 2 h post-challenge, read-out: Efficacy in murine septicemia % survival), the responders at 2 mg/kg worked out at 100%. Moreover, in data set [1] (Staphylococcus aureus), the ED50 was determined as 0.39 mg/kg.
For the molecule `NCCSCc1cnccc1SC1=C(C(=O)O)N2C(=O)[C@@H](NC(=O)/C(=N\O)c3cccc(N)n3)[C@H]2SC1` [Cmpd 24, (7R)-7-[(Z)-2-(2-aminopyrid-6-yl)-2-(hydroxyimino)acetamido]-3-[3-(2-aminoethylthiomethyl)pyrid-4-ylthio]-3-cephem-4-carboxylic acid], the “Serum Binding rat (% of compound bound to serum)” value in the data set on rat serum proteins worked out at 52%. For the same molecule, in data set [1] (setting [2]), the responders at 0.625 mg/kg is 30%, the responders at 1.25 mg/kg amounted to 90% and the responders at 2.5 mg/kg was 100%. Moreover, in data set [1] (Staphylococcus aureus), the ED50 worked out at 0.76 mg/kg. The “Efficacy in murine septicemia % survival” value in data set [1] (setting [3]) is 5/100%. The “Efficacy in murine septicemia % survival” value in data set [1] (dose 10 mg/kg s.c. at 0 and 2 h post-challenge) is reported as 10/100%.
